Patent publication US20210059961A1, “CANNABINOID DOSING REGIME FOR ACNE” (priority 2018, published 2021)

Experiments:
[1] = Skin permeation of CBD, Franz-type diffusion cell; assay type: in vitro ADME
Experimental: Dermatomed skin from a single donor was mounted in a Franz-type diffusion cell (0.55 cm^2 receptor fluid exposure surface area) and dosed with 5 ul of 2-[3-methyl-6-(1-methylethenyl)-2-cyclohexen-1-yl]-5-pentyl-1,3-benzenediol (CBD), BTX 1503 5% Solution, formulated in an mixture of a volatile solvent (hexylmethyldisiloxane/polymethylsiloxane—93% w/w), and residual solvent (arlamol E—2% w/w) at a concentration of 5.0% (w/w; 35.5 mg/ml). Following dosing, receptor phase samples were collected at 4, 10, 24 and 48 hours; after which the study was terminated.
The residual formulation was removed by tape stripping and the epidermis and dermis separated by blunt dissection. The levels of CBD in the epidermis, dermis, and receptor fluid samples were then analyzed using a bioanalytical method with LC-MS/MS detection.

[2] = Healthy volunteer study of single and multiple-dose BTX 1503 5% Solution (BTX.2017.001): pharmacokinetics, safety; assay type: in vivo, human; conditions: for mean CBD trough level Day 15: multiple dose phase
Experimental: The pharmacokinetics (PK) of single and multiple-dose administration of BTX 1503 5% Solution were evaluated in a healthy volunteer study. In this study, BTX 1503 5% Solution was applied as a single dose either QD or BID (12 hrs apart) on Day 1 followed by a 6-day washout period, then either QD or BID for 14 days (Day 8 to Day 21). Five subjects were enrolled in each cohort and doses were escalated for each sequential cohort enrolled with the following doses. • Cohort 1: 37.5 mg CBD/day or 0.066 mg/cm^2/day^a applied as 1 mL of BTX 1503 5% (w/w) QD • Cohort 2: 75 mg CBD/day or 0.133 mg/cm^2/day applied as 1 mL BTX 1503 5% (w/w) BID • Cohort 3: 112.5 mg CBD/day or 0.199 mg/cm^2/day applied as 3 mL of BTX 1503 5% (w/w) QD • Cohort 4: 225 mg CBD/day or 0.398 mg/cm^2/day applied as 3 mL of BTX 1503 5% (w/w) BID Area of application assumed to be 565 cm^2 (i.e., on the face), which is reported by the European Union Scientific Committee on Consumer Safety (SCCS) to be half of the surface area for a female head (SCCS Notes of Guidance for the Testing of Cosmetic Substances and Their Safety Evaluation, 8th edition, 2012; Table 2).
Blood samples were taken for PK assessments on Day 1 (Baseline) at pre-dose (15 mins before dosing), 30, 60 and 90 mins and 2, 2.5, 3, 4, 6, 8 and 12 hrs, and 24 hrs after the first single dose. For participants that received BID dosing, samples were also taken at 30, 60 and 90 mins and 2, 2.5, 3, 4, 6, and 8 hrs after the second dose on Day 1.
During the multiple dose (14-day) phase, trough levels were obtained before the morning application on Day 15. On Day 21, blood samples were taken for PK assessments at pre-dose (15 mins before dosing), 30, 60 and 90 mins and 2, 2.5, 3, 4, 6, 8 and 12 hrs, 24 hrs and 48 hrs after the morning dose. For participants that received BID dosing, samples were also be taken at 30, 60 and 90 mins and 2, 2.5, 3, 4, 6, and 8 hrs after the second dose on Day 21. A sample was obtained on Day 23, 48 hrs after the last morning dose. […]

[3] = Open-label study in patients with acne vulgaris: study drug plasma levels; assay type: in vivo, human
Description: Eligible subjects were enrolled within 14 days after the Screening Visit. Assessments for safety (CBC, chemistry, urinalysis, and vital signs) were obtained at the Baseline Visit (Day 1). If the Screening and Baseline Visits were not conducted on the same day, a UPT for WOCBP, lesion counts on the face, an Investigator's Global Assessment (IGA) for facial acne and a UDS were repeated. Baseline photographs of the face and a blood sample for Baseline study drug plasma levels were obtained. […] Cutaneous tolerability assessments were conducted at one hour after the first application. […]
Safety was the primary outcome measure. The safety outcomes were measured through assessment of: • AEs monitored from time of consent through the end of study. • Cutaneous tolerability (erythema, scaling, dryness, burning/stinging, and irritant/allergic contact dermatitis) collected at Baseline, Day 14, Day 28, and Day 35 and graded using the following scale: 0, None; 1, Slight; 2, Moderate; 3, Severe. • Vital signs (temperature, blood pressure, and pulse) obtained at Baseline, Day 14, Day 28 and Day 35. • Complete blood count (CBC), chemistry, and urinalysis at Baseline and at Day 28. Blood levels of study drug will be measured at Baseline and prior to dosing (trough level) on Day 14, Day 28, and Day 35. […]

[4] = tested on: immortalized human sebocytes; conditions: cited from earlier work
[5] = target: human vanilloid receptor type 1 (VR1) (Homo sapiens, UniProt Q8NER1); conditions: in vitro; cited from earlier work
anandamide = conditions: in vitro; cited from earlier work
airway obstruction = conditions: intravenous, sensitized guinea-pigs; cited from earlier work
cardiac inflammation = conditions: injected into rats; cited from earlier work
[6] = 5 ul of 5.0% w/w solution, 48-hour exposure

Sequence of human vanilloid receptor type 1 (VR1) (Q8NER1 whole entry): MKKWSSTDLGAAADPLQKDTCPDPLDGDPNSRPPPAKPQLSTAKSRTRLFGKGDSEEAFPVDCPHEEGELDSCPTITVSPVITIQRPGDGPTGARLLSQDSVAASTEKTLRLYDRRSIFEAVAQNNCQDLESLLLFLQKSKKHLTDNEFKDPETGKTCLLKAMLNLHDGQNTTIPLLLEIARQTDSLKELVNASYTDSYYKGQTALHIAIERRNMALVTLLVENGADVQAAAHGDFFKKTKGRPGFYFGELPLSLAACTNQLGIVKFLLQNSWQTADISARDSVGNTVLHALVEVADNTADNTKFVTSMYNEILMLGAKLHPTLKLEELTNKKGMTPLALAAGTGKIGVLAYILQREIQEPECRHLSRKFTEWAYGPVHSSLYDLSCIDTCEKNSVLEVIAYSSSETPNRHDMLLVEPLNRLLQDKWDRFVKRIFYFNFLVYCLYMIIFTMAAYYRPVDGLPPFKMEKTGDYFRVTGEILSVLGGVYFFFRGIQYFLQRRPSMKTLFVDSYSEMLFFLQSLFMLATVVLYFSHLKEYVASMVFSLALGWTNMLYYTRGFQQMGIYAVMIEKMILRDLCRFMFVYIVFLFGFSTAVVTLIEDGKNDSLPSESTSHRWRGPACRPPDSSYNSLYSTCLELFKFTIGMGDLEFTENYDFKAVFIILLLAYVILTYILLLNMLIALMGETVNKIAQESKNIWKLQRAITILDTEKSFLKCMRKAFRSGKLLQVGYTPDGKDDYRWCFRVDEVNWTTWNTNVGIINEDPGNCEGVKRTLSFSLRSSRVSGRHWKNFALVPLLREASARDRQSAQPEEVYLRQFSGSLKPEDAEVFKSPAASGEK

SMILES: C=C(C)C1CCC(C)=CC1c1c(O)cc(CCCCC)cc1O (stereo not drawn) [CBD, 2-[3-methyl-6-(1-methylethenyl)-2-cyclohexen-1-yl]-5-pentyl-1,3-benzenediol]
- CBD in the receptor phase (skin permeation) [1, 6]: < 278 ng/cm^2
- CBD in the receptor phase (skin permeation), percent of applied dose [1, 6]: less than 0.081%
- dermal deposition of CBD ([1]; 48-hour period): 4.54 % of the applied dose
- dermis concentration ([1]; 48-hour period): 8,408 ng/cm^2
- dermis concentration per tissue ([1]; 48-hour period): 1,933 ng/g of tissue
- dermis concentration, volume equivalent ([1]; 48-hour period): ~1,933 ng/mL
- epidermal deposition of CBD ([1]; 48-hour period): 13.17 % of the applied dose
- mean pre-dose CBD level Day 21 ([2]; Cohort 1: 1 mL QD): 0.545 ng/mL
- mean pre-dose CBD level Day 21 ([2]; Cohort 2: 1 mL BID): 0.770 ng/mL
- mean CBD trough level Day 15 ([2]; Cohort 2: 1 mL BID): 0.781 ng/mL
- mean pre-dose CBD level Day 21 ([2]; Cohort 3: 3 mL QD): 0.715 ng/mL
- mean CBD trough level Day 15 ([2]; Cohort 3: 3 mL QD): 0.525 ng/mL
- CBD trough level Day 15 of the outlier subject ([2]; Cohort 4, one subject): 5.99 ng/mL
- mean pre-dose CBD level Day 21 ([2]; Cohort 4: 3 mL BID): 1.553 ng/mL
- mean CBD trough level Day 15 ([2]; Cohort 4: 3 mL BID, all subjects): 2.11 ng/mL
- mean CBD trough level Day 15 without outlier subject ([2]; Cohort 4: 3 mL BID, one outlier excluded): 1.16 ng/mL
- Cmax Day 21 relative to Day 1 Cmax, mean ([2]; accumulation after 14 days dosing): 1.92 times
- subjects with circulating levels of CBD ([3]; Day 35 visit, 7 days after final dose): Nine
- study drug (CBD) plasma levels ([3]; throughout the study, 225 mg CBD per day): low
- effects on immortalized human sebocytes [4]: lipostatic, anti-proliferative, and anti-inflammatory effects
- effect on human vanilloid receptor type 1 (VR1) [5]: stimulate
- effect on anandamide (anandamide): inhibit
- effect on airway obstruction (airway obstruction): reduced airway obstruction
- effect on cardiac inflammation (cardiac inflammation): attenuated cardiac inflammation
